Experimental data reported in patent US8653117B2, “Composition comprising at least one oxazoline to inhibit migration of langerhans cells, and uses thereof” (Laboratoires Expanscience, priority 2001, dated 2014).

How the values were obtained:
[1] = system: Langerhans cells (LC) and dendritic cells (DC) in mice; assay: Migration of dendritic cells from ear skin to draining ganglions in mice sensitized by FITC hapten; assay type: in vivo; conditions: for Migration inhibition in %: FITC hapten; for migration of DCs to LGs (in words): OX100 alone, mice sensitized by FITC hapten
Description: FITC (Fluoresceine isothiocyanate, Sigma, St Louis, Mo.) was extemporaneously diluted in an acetone mix (dibutylphthalate (1:1)).
Oxazoline OX100 and LU105 (LU 105 is an MMP inhibitor, corresponding to a peptide extract of white lupin marketed by the Expanscience Company under the brand name Actimp 193®) were supplied by “Laboratoires Expanscience” and formulated alone or association with each other in an inert vehicle compatible with a topical application (oxazoline OX100 (0.1%) LU105 (2%)). The different formulations were applied on the ears of mice twice per day for 4 consecutive days. 1.5% of FITC was applied on both ears (one treated and the other not treated (Control)) three hours after the last application.
The effect of the two molecules was evaluated in vivo in mice. 1.5% FITC (2×5 μl) was applied on the skin of both ears. 24 h later, the mice were sacrificed and a cellular suspension was prepared from auricular and cervical ganglions (draining ganglions, hereinafter denoted GL) or from the poplital ganglions (non-draining ganglions, negative control). The tissues were cut and cells separated by filtration (100 μm filter, Falcon; Becton Dickinson) and then washed. The cells were then centrifuged for 10 minutes at 600×g (m×s^−2) on a metrizamide gradient (14.5% in RPMI 1640; 7.5% SVF). The interface cells were retrieved, rinsed and then marked with an anti-CDS86 PE-conjugated, biot-MHC CLII mAbs AC plus streptavidine-Cya (PharMingen) and analyzed by flux cytometry. Only the FITC^+, PE^+ and Cya^+ cells are counted since they represent the population of cells that migrated from the skin to GLs following the application of hapten.
FITC (Fluoresceine isothiocyanate, Sigma, St. Louis, Mo.) was diluted extemporaneously in a mixture of acetone and dibutylphthalate (1:1).
Oxazoline OX100 and AK100 (described above) were supplied by “Laboratoires Expanscience” and formulated alone or in association in an inert vehicle compatible with a topical application [OX100 (0.05%) AK100 (0.05%)]. The different formulations were applied on the ears of mice twice per day for 4 consecutive days. Three hours after the last application, 1.5% of FITC was applied on both ears (one treated and the other not treated (Control)).

[2] = system: Langerhans cells freshly isolated from human skin; assay: Migration of Langerhans cells freshly isolated from human skin, sensitized by DNSB, two-compartment Matrigel chamber; assay type: cell-based
Protocol: Epidermal cell suspensions were obtained by enzymatic treatment (0.05% trypsine for 18 h at +4° C.) of fragments of normal human skin taken from plastic surgery. The suspensions obtained contain an average of 2 to 4% of LC. Obtaining suspensions containing an average of 70% of LC is based on the principle of centrifuging on density gradient (Lymphoprep™) and elimination of keratinocytes.
The basic medium chosen for the entire study was PRMI 1640 (Gibco BRL, France). The OX100 molecule supplied by Pharmascience, with a concentration of 10^−2 M in solution in DMSO (Dimethyl Sulfoxide) was diluted in RPMI-1640 and tested at 1 μM.
The sensitizing agent was DNSB (Sigma Aldrich), a soluble form of DNCB (dinitro-chloro-benzene) solubilized in RPMI-BSA and used at a concentration of 50 μM.
A culture chamber system with two compartments (Falcon, Becton Dickinson, France) was used. The upper compartment is separated from the lower compartment by a membrane with 8 μm porosity, on which 50 μg/cm^2 Matrigel was deposited. […] After 18 h incubation at 37° C., the number of living cells that passed through the Matrigel and that are located in the lower compartment is counted under a microscope (the LCs are easily identifiable by their dendritic form). […]

[3] = system: dendritic cells generated in vitro from CD34+ precursors derived from blood from the umbilical cord; assay: Migration of dendritic cells generated in vitro from CD34+ precursors of umbilical cord blood, activated by hapten BB; assay type: cell-based; conditions: for inhibition at 1 µM: Dendritic cell, hapten BB; for Percentage of dendritic cells generated in vitro that migrated: BB + OX100 (1 μM)
Protocol: Mononucleated cells were obtained from blood from the umbilical cord of healthy donors by centrifuging on Ficoll. The CD34+ cells were then purified by immunoselection using a specific antibody and magnetic balls (Miltenyi Biotech, Germany). The CD34+ cells were cultivated in the presence of GM-CSF (100 ng/ml), TNF-α (2.5 ng/ml) in RPMI to which 10% calf fetus serum was added for 5 days. TGF-β1, a factor that encourages differentiation of cells to the Langerhans cells […], was added on the 5th day of culture.
Preparation of Media (Ditto Example 2).
Cells were treated by hapten BB on the 7th day (Brandowski base, 1.17 μg/ml) for 24 h, and were then subjected to the migration test.
Migration of LCs (Ditto Example 2).

| SMILES | Migration inhibition in % ([1]; Example 5, AK100 0.05% topical on ears twice per day for 4 days) [%] | migration of LCs induced by DNSB (in words) ([2]; 1 μM) | LC migration index ([2]; DNSB + OX100 (1 μM), 18 h, control cells set to 1, DNSB alone 2.55) | migration of dendritic cells generated in vitro and activated by hapten BB (in words) ([3]; 1 μM) | inhibition at 1 µM ([3]; experiment 1, 1 μM) [%] | inhibition at 1 µM ([3]; experiment 2, 1 μM) [%] | Percentage of dendritic cells generated in vitro that migrated ([3]; Experiment 1, BB alone 17) [%] | Percentage of dendritic cells generated in vitro that migrated ([3]; Experiment 2, BB alone 24) [%] | Migration inhibition in % ([1]; Example 4, OX100 0.1% topical on ears twice per day for 4 days) [%] | migration of DCs to LGs (in words) ([1]; Example 4) | Migration inhibition in % ([1]; Example 5, OX100 0.05% topical on ears twice per day for 4 days) [%] | migration of DCs to LGs (in words) ([1]; Example 5) |
| --- | --- | --- | --- | --- | --- | --- | --- | --- | --- | --- | --- | --- |
| CCCCCCCCCCCC(=O)NC(C)(C)CO [AK100] | 15 |  |  |  |  |  |  |  |  |  |  |  |
| CCCCCCCCCCCC1=NC(C)(C)CO1 [OX100, 2-undecyl-4,4-dimethyl-1,3-oxazoline] |  | significantly inhibits | 0.98 | significantly inhibits | 29 | 15 | 12 | 20.3 | 30 | significantly inhibits | 15 | significantly inhibits |
